Experiments:
Aβ1-42-induced AD mice [1] = assay: Brain tissue TUNEL assay (hippocampal apoptosis); assay type: in vivo, ICR male mice; settings: Aβ1-42 AD mice; SFN 10 mg/kg oral; AD group 40.3 ± 10.4
Source text: (§1) Seven-week-old ICR male mice (25−30 g body weight range) were purchased from the Samtaco BIO, KOREA (Osan-si, Gyeonggi-do, Korea). […] All efforts were made to minimize suffering and the number of animals used. One day before dissection, only water was provided and food was fasted. Acclimatized experimental animals were grouped into seven containing 7 mice each (Table 1 and Fig. 1).
(§2) Prepare the test substance at a concentration appropriate for each test using purified water. […] Amyloid beta (Aβ1-42) was prepared and administered following standard protocols. BSEP was orally administered at doses of 200 mg/kg/day and 400 mg/kg/day for one week before and after Aβ1-42 injection, each at a volume of 200 μL. Following intravenous administration, broccoli extract was orally administered at the same doses for two weeks.
(§3) Aβ1-42 ([…]) was surgically injected into the brain ventricle of anesthetized mice (intravenous [IV] injection of xylazine [5 mg/kg] and ketamine [50 mg/kg]). The skull was precisely punctured at specific coordinates using a small drill, and amyloid beta was injected deeply into the brain using a microinjector. The control group underwent the same procedure with saline injections instead. Following surgery, the incision sites were disinfected and sutured, and the animals were allowed to recover in a cage.

acetylcholine (ACh) = assay: Brain tissue acetylcholine (ACh) level; design: species or system ICR male mice; settings: mouse, in vivo
Source text: as §1, §2, §3

Aβ1-42-induced AD mice [2] = assay: Passive avoidance test; assay type: in vivo, ICR male mice
Source text: as §1, §2, §3
The passive avoidance experiment is a commonly used method for assessing enhancements in learning and memory capabilities. The experiment was conducted in a room with noise levels below 60 dB and dim lighting. The measuring instrument, Shuttle Box Test Package (Med Associates Inc., Vermont, USA), consisting of two rooms of equal size (25 × 25 cm). An automatic guillotine door was installed on the wall separating the two rooms. One room was illuminated (20 W light bulb), while the other remained dark. The mice were trained to associate the dark environment with an aversive stimulus. In the experiment (n = 3), upon entry into the dark room, an electric shock (foot-shock) was administered by passing a current of 3 mA for 5 s through a stainless-steel grid beneath the room. This procedure facilitated the mouse's recognition of the association between the dark environment and the aversive stimulus.

[3] = following the consumption of broccoli sprouts or supplements; cited from earlier work
[4] = cited from earlier work
Aβ1-42-induced AD mice [5] = assay: Morris water maze test; assay type: in vivo, ICR male mice; settings: Aβ1-42 AD mice; for average escape latency time over the three days: AD group 42.7 ± 9.13, normal 27.66 ± 3.97
Source text: as §1, §2, §3
(§4) The water maze test evaluates the spatial memory of experimental animals by filling a circular pool (120 cm diameter × 60 cm hight) with water to a depth of 30 cm (maintained at 23 ± 2 °C). An escape zone (10 cm diameter) is designated in one section of the four quadrants, with the platform positioned 1 cm below the water surface and made invisible with skim milk powder. If the animal fails to locate the platform within 60 s, it is gently guided there and allowed to familiarize itself for 20 s. The test is conducted at 30-min intervals, four times daily for three consecutive days. Observations are recorded using a ceiling-mounted camera and analyzed using SMART 3.0 software (Panlab S.L., Barcelona, Spain).

Aβ1-42-induced AD mice [6] = assay: Retention test of Morris water maze; assay type: in vivo; settings: 60 s free swimming, platform removed, control group 9.51 ± 5.2
Protocol: as §4

[7] = biological target: acetylcholinesterase (AChE) (Mus musculus, UniProt P21836); settings: SFN 10 mg/kg oral
Protocol: All efforts were made to minimize suffering and the number of animals used. One day before dissection, only water was provided and food was fasted. Acclimatized experimental animals were grouped into seven containing 7 mice each (Table 1 and Fig. 1).
as §2, §3

[8] = rodents, within a few hours post-administration, oral or intraperitoneal; cited from earlier work
[9] = In vivo oral absorption of SFN and BSE in rats (pharmacokinetics); design: species or system Sprague–Dawley rats; settings: for AUCinf / AUClast / Cmax / MRT / T1/2 / Tmax: plasma SFN
Protocol: Sprague–Dawley rats (males, 6–7 weeks old, 200–250 g) were purchased from G-bio (Gwangju, Republic of Korea). The animals were housed under standard conditions in terms of temperature (23 ± 2 °C), relative humidity (RH; 55 ± 10 %), and light (12/12 h light/dark cycle). The animals had ad libitum access to a standard laboratory diet (Nestlé Purina PetCare Research, St. Louis, MO, USA) and ion-sterilized tap water. Ethical approval for this study was obtained from the IACUC of Mokpo National University (Jeonnam, Republic of Korea; approval no. MNU-IACUC-2023-009).
To examine the distinction of pharmacokinetic parameters of SFN after IV injection and oral administration of SFN or BSEP (containing 3 % SFN), Sprague–Dawley rats were orally administered 400 μL of SFN dissolved in 0.5 % sodium CMC (5 mg/kg, SFN-oral) or aqueous solution of BSEP (equivalent to 5 mg/kg SFN, BSEP-oral). To calculate the oral bioavailability, rats were intravenously injected with 200 μL of SFN (5 mg/kg SFN dissolved in 0.5 % sodium CMC) via the femoral vein. Then, 200-μL blood samples were collected from the cannulated femoral artery at predetermined time points and immediately centrifuged at 13,000×g for 5 min at 4 °C. The separated plasma samples were kept frozen at −80 °C until analysis.
To determine the plasma concentrations of SFN, the working solutions of SFN of 20, 15, 10, 5, 2, 1, 0.6, and 0.2 μg/mL, and 5 μg/mL phenylethyl isothiocyanate (internal standard, IS) were prepared in acetonitrile. Then, 10 μL of each working solution and 10 μL of IS were spiked with 180 μL of rat blank plasma for standard solution. Separately, 180 μL of each plasma sample was spiked with 10 μL of IS solution and 10 μL of acetonitrile. Next, 200 μL of a mixture of acetonitrile, water, and ethanol (25:25:50, v/v/v) was added to each plasma sample spiked with IS, followed by vortex mixing. After centrifugation at 13,000×g for 5 min at room temperature, the supernatant was transferred to another vial for further extraction using an HLB SPF μElution plate (Waters Corp., Milford, MA, USA). Each well of the SPE plate was conditioned and equilibrated by 200 μL of methanol and water, respectively. Then, the 400 μL of the collected supernatant was added to each well of the plate and aspirated under a 5 H g vacuum. After washing with 200 μL of water and 50 % methanol, each well was eluted with 400 μL (200 μL × 2 times) of acetonitrile.
Each eluted sample (10 μL) was injected into a UPLC system (ACQUITY UPLC; Waters Corp.) equipped with an ACQUITY UPLC BEH C18 column (2.1 × 50 mm, 1.7 μm; Waters Corp.) at 50 °C. SFN and IS were eluted by the mobile phase (10 mM ammonium acetate in water:0.1 % formic acid in acetonitrile [3:7, v/v]) at a flow rate of 0.6 mL/min. A mass spectrometer (Xevo TQ-S; Waters Corp.) was used for ionization of SFN or the IS (in positive ion multiple reaction-monitoring mode) at an electrospray voltage of 3.0 kV, with a source temperature of 120 °C, desolvation temperature of 500 °C, and desolvation gas flow rate of 800 L/h. SFN quantification was performed by reference to the m/z transition 178.0 → 114.0 at a cone voltage of 24 V and collision energy of 30 eV; for IS, the m/z transition was 164.0 → 130.0 at a cone voltage of 23 V and collision energy of 22 eV.

[10] = cited from earlier work; remark: listed apart in the source
TNF-α = TNF-α gene expression in LPS-induced RAW 264.7 macrophages (qPCR); assay type: cell-based, murine
Protocol: RAW 264.7 cells at passage 3 were seeded at 1 × 10^5 cells/mL to each well of a 6-well cell culture plate. The cells were cultured until it reached 70−80 % confluency and media were changing every 2 days. Upon confluency, removed the old media and cells were pre-treated with 1 mL non-serum media for 10−15 min in the incubator. All controls and samples, dilutions are prepared in non-serum media. Removed non-serum media and added with LPS (1 μg/mL) in non-serum media for 24 h. Next day, removed the LPS containing media and washed once with 1 × PBS and then the cells were treated with SFN solutions for 1 h. Removed the treatment solution, washed twice with 1 × PBS, pH 7.4. The cells were dissociated and collected by sedimentation (1500 rpm, 6 min).
The total RNA content was extracted following the TRIzol method according to the manufacturer's protocol. Quantification of mRNAs abundance was determined using 1-step reverse transcription real-time quantitative PCR with the QuantiTect SYBR Green RT-PCR Kit (Qiagen, Germany), performed on a Rotor-Gene Q Real-Time system (Qiagen, Germany). […] Target gene expression was normalized to constitutively expressed ACT-β gene, and the relative quantity of target gene mRNAs was expressed as 2^−ΔΔCt using the relative comparative threshold cycle method as previously described [[33], [34], [35]]. […]

[11] = single oral dose 5 mg/kg SFN (SFN in 0.5 % sodium CMC; BSEP aqueous solution equivalent to 5 mg/kg SFN)

Sequence of acetylcholinesterase (AChE) (P21836 32-614): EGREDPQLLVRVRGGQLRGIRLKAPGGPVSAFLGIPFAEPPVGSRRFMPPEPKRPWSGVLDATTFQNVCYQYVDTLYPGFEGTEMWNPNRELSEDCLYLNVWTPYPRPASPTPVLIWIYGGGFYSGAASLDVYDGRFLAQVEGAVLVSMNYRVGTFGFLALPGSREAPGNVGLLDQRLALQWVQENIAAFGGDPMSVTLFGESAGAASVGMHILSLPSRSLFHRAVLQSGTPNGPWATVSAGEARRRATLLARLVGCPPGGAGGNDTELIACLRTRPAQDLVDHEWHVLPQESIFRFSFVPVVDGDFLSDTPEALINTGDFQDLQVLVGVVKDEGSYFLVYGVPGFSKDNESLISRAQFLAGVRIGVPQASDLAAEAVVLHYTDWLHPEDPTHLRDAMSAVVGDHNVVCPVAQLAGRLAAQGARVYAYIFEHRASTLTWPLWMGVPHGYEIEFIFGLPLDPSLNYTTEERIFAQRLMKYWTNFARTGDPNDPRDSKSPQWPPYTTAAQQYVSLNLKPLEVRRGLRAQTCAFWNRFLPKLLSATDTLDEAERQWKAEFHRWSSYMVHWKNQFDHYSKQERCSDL

1-isothiocyanato-4-methylsulfonylbutane [SFN]
number of TUNEL-positive cells in the hippocampus (Aβ1-42-induced AD mice [1]): 19.0 ± 5.2 cells
brain ACh level (acetylcholine (ACh)): 1.2 ± 0.1 nmol/µL
time spent in the brightly lit room before entering the dark room (Aβ1-42-induced AD mice [2]; SFN 10 mg/kg oral, AD control 19): 90 s
time spent in the brightly lit room before entering the dark room (Aβ1-42-induced AD mice [2]; SFN 10 mg/kg oral, AD control 51): 166 s
time spent in the brightly lit room before entering the dark room (Aβ1-42-induced AD mice [2]; SFN 10 mg/kg oral, first of three values, AD control 25): 37 s
SFN level detected in human plasma [3]: nanomolar to low micromolar levels
doses that may lead to toxicity [4]: exceeding 150 mg/kg body weight
escape latency times by the third day (Aβ1-42-induced AD mice [5]; SFN 10 mg/kg oral): comparable to those of the normal control group
average escape latency time over the three days (Aβ1-42-induced AD mice [5]; SFN 10 mg/kg oral): 28.01 ± 2.95 s
time spent in the quadrant where the platform was previously located (Aβ1-42-induced AD mice [6]; SFN 10 mg/kg): 8.83 ± 5.92 s
brain AChE activity relative to normal group (100 %) ([7]; AD control 162 %): 105%
brain AChE activity ([7]; AD control 1707.1 ± 97.12, normal 1057.44 ± 75.41): 1104.65 ± 123.41 mU/mL
SFN brain concentrations [8]: 0.5 to 2 µM
Bioavailability ([9]; single IV dose 5 mg/kg SFN (reference)): 100%
AUCinf ([9]; single IV dose 5 mg/kg SFN): 390 ± 33.7 ng·h/mL
AUClast ([9]; single IV dose 5 mg/kg SFN): 380 ± 27.5 ng·h/mL
Cmax ([9]; single IV dose 5 mg/kg SFN): 414 ± 65.1 ng/mL
MRT ([9]; single IV dose 5 mg/kg SFN): 0.971 ± 0.224 h
T1/2 ([9]; single IV dose 5 mg/kg SFN): 1.35 ± 0.806 h
Tmax ([9]; single IV dose 5 mg/kg SFN): 0.170 ± 0.000 h
AUCinf [9, 11]: 259 ± 39.6 ng·h/mL
AUClast [9, 11]: 241 ± 46.1 ng·h/mL
Cmax [9, 11]: 96.2 ± 13.1 ng/mL
MRT [9, 11]: 3.14 ± 0.835 h
T1/2 [9, 11]: 1.82 ± 0.574 h
Tmax [9, 11]: 1.00 ± 0.000 h
Bioavailability ([9]; single oral dose 5 mg/kg SFN (SFN in 0.5 % sodium CMC; BSEP aqueous solution equivalent to 5 mg/kg SFN), versus SFN-IV): 63.4 ± 12.1%
typical urinary excretion, of the administered dose [10]: 70−90%
reduction of TNF-α expression versus control (LPS stimulation only) (TNF-α; 1:100 dilution (of SFN 210 ppm; of 1 % BSEP)): 30–40%
TNF-α gene expression (TNF-α; undiluted (positive control SFN 210 ppm; 1 % BSEP solution), LPS 1 μg/mL): significant downregulation

COc1cc2c(cc1OC)C(=O)C(CC1CCN(Cc3ccccc3)CC1)C2 (stereo not drawn) [donepezil]
time spent in the brightly lit room before entering the dark room (Aβ1-42-induced AD mice [2]; donepezil 5 mg/kg oral, AD control 19): 100 s
time spent in the brightly lit room before entering the dark room (Aβ1-42-induced AD mice [2]; donepezil 5 mg/kg oral, AD control 51): 149 s
time spent in the brightly lit room before entering the dark room (Aβ1-42-induced AD mice [2]; donepezil 5 mg/kg oral, first of three values, AD control 25): 29 s
escape latency times by the third day (Aβ1-42-induced AD mice [5]; donepezil 5 mg/kg oral): comparable to those of the normal control group
average escape latency time over the three days (Aβ1-42-induced AD mice [5]; donepezil 5 mg/kg oral): 34.97 ± 3.21 s
time spent in the quadrant where the platform was previously located (Aβ1-42-induced AD mice [6]; donepezil 5 mg/kg): 16.26 ± 4.61 s

Reference: paper PMC11875816 (Heliyon, 2025)
